Measurements: patent US20260151372A1, “AZOTOMYCIN PRODRUGS WITH PREFERENTIAL TUMOR DELIVERY” (The Johns Hopkins University, priority 2022, published 2026)
“Also recorded” adds a separate entry of the source.

Columns and labels:
[1] = Metabolic stability in CES1-KO mouse liver homogenate; format: in vitro ADME; details: tissue homogenate, 10 μM, 37° C.
Description: (§1) In vitro stability studies were done using CES1KO mouse plasma, human plasma, CES1-KO mouse liver, and human liver microsomes as previously described. For tissue homogenate stability studies, washed tissue was diluted 10-fold in 0.1 M potassium phosphate buffer and homogenized using probe sonication. Crude homogenate was then aliquoted to 1 mL, and spiked with 10 mM stock of the analyte in DMSO to achieve a 10 μM final concentration. The plasma stability of the prodrugs was determined by spiking the analyte in 1 mL of plasma. The plasma and tissues were incubated in an orbital shaker at 37° C. Stability in human liver microsomes was assessed at a final prodrug concentration of 1 μM with 0.2 mg/mL protein for microsomes. All the stability studies were conducted at predetermined times (0 and 60 min), where 50 μL aliquots of the mixture in triplicate were removed and the reaction was quenched by addition of 5 times the volume of ice-cold methanol spiked with the internal standard (losartan: 0.5 μM). The samples were vortex-mixed for 30 s and centrifuged at 10,000 g for 10 min at 4° C. An amount of 50 μL of the supernatant was diluted with 50 μL of water and transferred to a 250 μL polypropylene vial sealed with a Teflon cap. Prodrug disappearance was monitored over time using liquid chromatography and mass spectrometry (LC-MS).
(§2) Analyses were performed on a Dionex ultra high-performance LC system coupled with Q Exactive Focus orbitrap mass spectrometer (Thermo Fisher Scientific Inc., Waltham MA). Separation was achieved using Agilent Eclipse Plus column (100×2.1 mm i.d., maintained at 35° C.) packed with a 1.8 μm C18 stationary phase. The mobile phase consisted of 0.1% formic acid in water and 0.1% formic acid in acetonitrile, […] were operated at a flow rate of 0.3 mL/min for 7 min using gradient elution. The mass spectrometer controlled by Xcalibur software 4.0.27.13 (Thermo Scientific) was operated with a HESI ion source in positive ionization mode. Metabolites were identified in the full-scan mode (from m/z 50 to 1600) by comparing […] samples

[2] = Plasma stability in human plasma; format: in vitro ADME; details: 37° C.
Description: as §1, §2

[3] = Metabolic stability in human liver microsomes; format: in vitro ADME; details: 1 μM prodrug, 0.2 mg/mL protein
Description: as §1, §2

[4] = Plasma stability in CES1KO mouse plasma; format: in vitro ADME; details: for Plasma Stability (% Remaining at 60 min) CES1^−/− Mouse Plasma: 37° C.; for stability in vitro (in words): mouse and human plasma and liver microsomes in vitro
Description: as §1, §2

[5] = Pharmacokinetics in C57BL/6 CES1^−/− mice bearing flank EL4 tumors; format: in vivo
Description: The pharmacokinetic study in C57BL/6 CES1 mice was conducted according to protocols reviewed and approved by the Johns Hopkins Institutional Animal Care and Use Committee in compliance with the Association for Assessment and Accreditation of Laboratory Animal Care International and the Public Health Service Policy on the Humane Care and Use of Laboratory Animals (PHS Policy). Briefly, naïve male and female C57BL/6 CES1^−/− mice (weighing between 25 and 30 g) 6-8 weeks of age were used. The animals were maintained on a 12 h light-dark cycle with ad libitum access to food and water. Tumors were grown via subcutaneous (SC) injection of EL4 cells (1×10^6 cells in 0.2 mL of phosphate-buffered saline) in one location on the flank of each mouse. […]
For quantifying intact analytes in the pharmacokinetic samples, plasma samples (25 μL) were processed using a single step protein precipitation method by addition of 125 μL of methanol containing internal standard (losartan: 0.5 μM), followed by vortex-mixing for 30 s and then centrifugation at 16,000 g for 5 min at 4° C. […]
The samples were subjected to dabsyl chloride derivatization and analyzed by LC-MS/MS, as described in Tenora et al., 2019. […]

Which “Liver Stability (% Remaining at 60 min) CES1^−/− Mouse Liver” value [1] does the source give for `CN(C)CC(=O)N[C@@H](CCC(=O)N[C@@H](CCC(=O)C=[N+]=[N-])C(=O)N[C@@H](CCC(=O)C=[N+]=[N-])C(=O)OC(C)(C)C)C(=O)OC(C)(C)C` [Prodrug P3, tert-Butyl (6S,11S,14S)-6-(tert-butoxycarbonyl)-11,14-bis(4-diazo-3-oxobutyl)-2-methyl-4,9,12-trioxo-2,5,10,13-tetraazapentadecan-15-oate] here?
Its value is 96.0 ± 4.36%.

What about the “Plasma Stability (% Remaining at 60 min) Human Plasma” value [2] of the same molecule?
The value was 106 ± 2.40%.

And the “Liver Stability (% Remaining at 60 min) Human Liver Microsomes” value [3]?
The value was 105 ± 2.53%.

What about the “Plasma Stability (% Remaining at 60 min) CES1^−/− Mouse Plasma” value [4] of the same molecule?
The value was 92.3 ± 0.882%.

And the “stability in vitro (in words)” value [4]?
Its value is “stable”.

What about the “preferential tumor delivery / tumor targeting (in words)” value [5] of the same molecule?
The value was “exhibited preferential tumor delivery”.

For `CN(C)CC(=O)N[C@@H](Cc1c[nH]c2ccccc12)C(=O)N[C@@H](CCC(=O)N[C@@H](CCC(=O)C=[N+]=[N-])C(=O)N[C@@H](CCC(=O)C=[N+]=[N-])C(=O)OC(C)(C)C)C(=O)OC(C)(C)C` [Prodrug P4, tert-Butyl (6S,9S,14S,17S)-6-((1H-indol-3-yl)methyl)-9-(tert-butoxycarbonyl)-14,17-bis(4-diazo-3-oxobutyl)-2-methyl-4,7,12,15-tetraoxo-2,5,8,13,16-pentaazaoctadecan-18-oate], which “Liver Stability (% Remaining at 60 min) CES1^−/− Mouse Liver” value [1] is on record?
The value was 54.3 ± 1.45%.

What about the “Plasma Stability (% Remaining at 60 min) Human Plasma” value [2] of the same molecule?
The value was 100 ± 0.00%.

What about the “Liver Stability (% Remaining at 60 min) Human Liver Microsomes” value [3] of the same molecule?
Its value is 107 ± 1.63%.

What about the “Plasma Stability (% Remaining at 60 min) CES1^−/− Mouse Plasma” value [4] of the same molecule?
The value was 101 ± 4.67%.

What about the “stability in vitro (in words)” value [4] of the same molecule?
The value was “stable”.

What about the “preferential tumor delivery / tumor targeting (in words)” value [5] of the same molecule?
Its value is “exhibited preferential tumor delivery; also recorded: showed tumor targeting”.
